Results: paper PMC8725944, “Design and synthesis of chromone-nitrogen mustard derivatives and evaluation of anti-breast cancer activity” (Journal of Enzyme Inhibition and Medicinal Chemistry, 2021)

These molecules were tested on TNBC cell line MDA-MB-231 (assay: CCK-8 assay, antiproliferative activity against MDA-MB-231). Conditions: Homo sapiens, MDA-MB-231, 72 h, read-out: IC50 MDA-MB-231.

Going from `COc1cccc2c1C(=O)c1c(O)c3c(c(O)c1C2=O)C[C@@](O)(C(=O)CO)C[C@@H]3O[C@H]1C[C@H](N)[C@H](O)[C@H](C)O1` [Adriamycin, reference compound] to `COc1ccc2occ(COC(=O)[C@H](Cc3ccc(N(CCCl)CCCl)cc3)NC(=O)OC(C)(C)C)c(=O)c2c1` [Compound 18c, (6-Methoxy-4-oxo-4H-chromen-3-yl)methyl (S)-3-(4-(bis(2-chloroethyl)amino)phenyl)-2-((tert-butoxycarbonyl)amino)propanoate], the IC50 rises from 2.94 ± 0.12 µM to 16.7 ± 0.69 µM (5.7-fold). The first is the more potent here.

`N[C@@H](Cc1ccc(N(CCCl)CCCl)cc1)C(=O)O` [Compound 5, melphalan, reference compound] and `O=CN[C@@H](Cc1ccc(N(CCCl)CCCl)cc1)C(=O)O` [Compound 6, formylmerphalan, reference compound] cannot be ordered by IC50: over 20 µM for the first, over 20 µM for the second.

`CC(C)(C)OC(=O)N[C@@H](Cc1ccc(N(CCCl)CCCl)cc1)C(=O)O` [Compound 7, Boc-protected melphalan, reference compound] and `COC(=O)[C@H](Cc1ccc(N(CCCl)CCCl)cc1)NC(=O)CCC(=O)O` [Compound 9, reference compound] cannot be ordered by IC50: over 20 µM for the first, over 20 µM for the second.

Going from `COC(=O)[C@H](Cc1ccc(N(CCCl)CCCl)cc1)NC(=O)CCCC(=O)O` [Compound 10, reference compound] to `COC(=O)[C@H](Cc1ccc(N(CCCl)CCCl)cc1)NC(=O)CCCC(=O)OCc1coc2ccc(C)cc2c1=O` [Compound 17e, (6-Methyl-4-oxo-4H-chromen-3-yl)methyl (S)-5-((3-(4-(bis(2-chloroethyl)amino)phenyl)-1-methoxy-1-oxopropan-2-yl)amino)-5-oxopentanoate], the IC50 falls from over 20 µM to 8.32 ± 0.34 µM.

`Cc1ccc2occ(CO)c(=O)c2c1` [Compound 15] and `Cc1ccc2occ(CN)c(=O)c2c1` [Compound 19] cannot be ordered by IC50: over 20 µM for the first, over 20 µM for the second.

`COc1ccc2occ(CO)c(=O)c2c1` [Compound 16] and `COc1ccc2occ(CN)c(=O)c2c1` [Compound 20] cannot be ordered by IC50: over 20 µM for the first, over 20 µM for the second.

`Cc1ccc2occ(COC(=O)c3ccc(N(CCCl)CCCl)cc3)c(=O)c2c1` [Compound 17a, (6-Methyl-4-oxo-4H-chromen-3-yl)methyl 4-(bis(2-chloroethyl)amino)benzoate] and `COc1ccc2occ(COC(=O)c3ccc(N(CCCl)CCCl)cc3)c(=O)c2c1` [Compound 18a, (6-Methoxy-4-oxo-4H-chromen-3-yl)methyl 4-(bis(2-chloroethyl)amino)benzoate] are within error of each other in IC50: 9.57 ± 0.65 µM for the first, 9.47 ± 0.38 µM for the second.

`Cc1ccc2occ(COC(=O)[C@H](Cc3ccc(N(CCCl)CCCl)cc3)NC=O)c(=O)c2c1` [Compound 17b, (6-Methyl-4-oxo-4H-chromen-3-yl)methyl (S)-3–(4-(bis(2-chloroethyl)amino)phenyl)-2-formamidopropanoate] and `COc1ccc2occ(COC(=O)[C@H](Cc3ccc(N(CCCl)CCCl)cc3)NC=O)c(=O)c2c1` [Compound 18b, (6-Methoxy-4-oxo-4H-chromen-3-yl)methyl (S)-3-(4-(bis(2-chloroethyl)amino)phenyl)-2-formamidopropanoate] are within 1.5-fold of each other in IC50: 13.2 ± 1.12 µM for the first, 11.5 ± 0.35 µM for the second.

Going from `Cc1ccc2occ(COC(=O)[C@H](Cc3ccc(N(CCCl)CCCl)cc3)NC(=O)OC(C)(C)C)c(=O)c2c1` [Compound 17c, (6-Methyl-4-oxo-4H-chromen-3-yl)methyl (S)-3-(4-(bis(2-chloroethyl)amino)phenyl)-2-((tert-butoxycarbonyl)amino)propanoate] to `Cc1ccc2occ(CNC(=O)[C@H](Cc3ccc(N(CCCl)CCCl)cc3)NC(=O)OC(C)(C)C)c(=O)c2c1` [Compound 21c, Tert-butyl (S)-(3-(4-(bis(2-chloroethyl)amino)phenyl)-1-(((6-methyl-4-oxo-4H-chromen-3-yl)methyl)amino)-1-oxopropan-2-yl)carbamate], the IC50 falls from over 20 µM to 12.7 ± 0.48 µM.

`COC(=O)[C@H](Cc1ccc(N(CCCl)CCCl)cc1)NC(=O)CCC(=O)OCc1coc2ccc(C)cc2c1=O` [Compound 17d, (6-Methyl-4-oxo-4H-chromen-3-yl)methyl (S)-4-((3-(4-(bis(2-chloroethyl)amino)phenyl)-1-methoxy-1-oxopropan-2-yl)amino)-4-oxobutanoate] and `COC(=O)[C@H](Cc1ccc(N(CCCl)CCCl)cc1)NC(=O)CCC(=O)OCc1coc2ccc(OC)cc2c1=O` [Compound 18d, (6-Methoxy-4-oxo-4H-chromen-3-yl)methyl (S)-4-((3-(4-(bis(2-chloroethyl)amino)phenyl)-1-methoxy-1-oxopropan-2-yl)amino)-4-oxobutanoate] are within 1.5-fold of each other in IC50: 11.4 ± 0.2 µM for the first, 12.8 ± 0.32 µM for the second.

First: COC(=O)[C@H](Cc1ccc(N(CCCl)CCCl)cc1)NC(=O)CCCC(=O)OCc1coc2ccc(OC)cc2c1=O [Compound 18e, (6-Methoxy-4-oxo-4H-chromen-3-yl)methyl (S)-5-((3-(4-(bis(2-chloroethyl)amino)phenyl)-1-methoxy-1-oxopropan-2-yl)amino)-5-oxopentanoate]
Second: COC(=O)[C@H](Cc1ccc(N(CCCl)CCCl)cc1)NC(=O)CCC(=O)NCc1coc2ccc(OC)cc2c1=O [Compound 22d, Methyl (S)-3-(4-(bis(2-chloroethyl)amino)phenyl)-2-(4-(((6-methoxy-4-oxo-4H-chromen-3-yl)methyl)amino)-4-oxobutanamido)propanoate]
The IC50 of the first is 2.9-fold higher: 8.98 ± 0.26 µM for the first, 3.05 ± 0.14 µM for the second.

`Cc1ccc2occ(CNC(=O)c3ccc(N(CCCl)CCCl)cc3)c(=O)c2c1` [Compound 21a, 4-(Bis(2-chloroethyl)amino)-N-((6-methyl-4-oxo-4H-chromen-3-yl)methyl)benzamide] and `COc1ccc2occ(CNC(=O)c3ccc(N(CCCl)CCCl)cc3)c(=O)c2c1` [Compound 22a, 4-(Bis(2-chloroethyl)amino)-N-((6-methoxy-4-oxo-4H-chromen-3-yl)methyl)benzamide] are within 1.5-fold of each other in IC50: 14.9 ± 1.06 µM for the first, 10.6 ± 0.58 µM for the second.

Compared with `Cc1ccc2occ(CNC(=O)[C@H](Cc3ccc(N(CCCl)CCCl)cc3)NC=O)c(=O)c2c1` [Compound 21b, (S)-3-(4-(bis(2-chloroethyl)amino)phenyl)-2-formamido-N-((6-methyl-4-oxo-4H-chromen-3-yl)methyl)propanamide], `COc1ccc2occ(CNC(=O)[C@H](Cc3ccc(N(CCCl)CCCl)cc3)NC=O)c(=O)c2c1` [Compound 22b, (S)-3-(4-(bis(2-chloroethyl)amino)phenyl)-2-formamido-N-((6-methoxy-4-oxo-4H-chromen-3-yl)methyl)propanamide] is 2-fold lower in IC50: 9.42 ± 0.29 µM for the first, 4.65 ± 0.22 µM for the second. The second is the more potent here.

First: COC(=O)[C@H](Cc1ccc(N(CCCl)CCCl)cc1)NC(=O)CCC(=O)NCc1coc2ccc(C)cc2c1=O [Compound 21d, Methyl (S)-3-(4-(bis(2-chloroethyl)amino)phenyl)-2-(4-(((6-methyl-4-oxo-4H-chromen-3-yl)methyl)amino)-4-oxobutanamido)propanoate]
Second: COC(=O)[C@H](Cc1ccc(N(CCCl)CCCl)cc1)NC(=O)CCCC(=O)NCc1coc2ccc(C)cc2c1=O [Compound 21e, Methyl (S)-3-(4-(bis(2-chloroethyl)amino)phenyl)-2–(5-(((6-methyl-4-oxo-4H-chromen-3-yl)methyl)amino)-5-oxopentanamido)propanoate]
The IC50 of the first is 1.5-fold higher: 6.87 ± 0.19 µM for the first, 4.47 ± 0.15 µM for the second. The second is the more potent here.

With `COc1ccc2occ(CNC(=O)[C@H](Cc3ccc(N(CCCl)CCCl)cc3)NC(=O)OC(C)(C)C)c(=O)c2c1` [Compound 22c, Tert-butyl (S)-(3-(4-(bis(2-chloroethyl)amino)phenyl)-1-(((6-methoxy-4-oxo-4H-chromen-3-yl)methyl)amino)-1-oxopropan-2-yl)carbamate] the IC50 was 9.87 ± 0.36 µM.
